Results from patent US8993717B2, “Gadd45beta targeting agents” (Imperial Innovations Limited, priority 2009, dated 2015).
Where two headings read alike, the source gives them in different places. Square brackets hold non-standard residues; d marks the D form. Peptide text beside a SMILES is read from it. * marks the point of attachment. NHPhenethyl = c1ccc(CCN*)cc1; Cbz = O=C(OCc1ccccc1)*; NHBn = c1ccc(CN*)cc1; Bz = O=C(c1ccccc1)*; NHPh = c1ccc(N*)cc1

Experiments:
[1] = system: KMS11 multiple myeloma cells; experiment: [3H]thymidine incorporation assay in KMS11; format: cell-based, human
Procedure: Cultures of multiple myeloma cells and treatments with Z-DTPs were carried out as described in Example 8 (see below). The effects of Z-DTPs on the survival/proliferation of multiple myeloma cells were evaluated by the use of [^3H]thymidine) incorporation assays, performed as also described in Example 8. The amount of cell proliferation measured with each of the Z-DTPs' concentrations used and with the untreated cultures (i.e. cultures incubated with medium alone), was expressed as counts per minute (c.p.m.)—which directly correlate with the extent of cell proliferation. All experiments were performed in triplicate.
In these latter assays, the effects of Z-DTPs, Ac-DTPs and Z-LTPs on the survival/proliferation of tumour cell lines was investigated by measuring DNA synthesis using standard tritiated thymidine ([^3H]thymidine; [^3H]-TdR) uptake assays. In the analyses shown, cells were incubated for 24, 72, 120 or 144 hrs at 37° C. in the presence or absence of control or bioactive tetrapeptides, as indicated, then subjected to an additional incubation for 18 hrs with [^3H]-TdR (0.037 MBq/well, equivalent to […]). Cells were subsequently harvested onto glass fibre filter mats using a 96-well plate automated cell harvester, after which scintillation fluid was added, and [^3H]thymidine incorporation measured by liquid scintillation spectroscopy on a beta counter. The results are expressed as the percentages of the counts per minute (c.p.m.) (directly correlating with the extent of cell proliferation) measured with tetrapeptide-treated cultures relative to the c.p.m. measured with the corresponding cultures incubated with medium alone (untreated cells). All experiments were performed in triplicate.

[2] = system: KMS12 multiple myeloma cells; experiment: [3H]thymidine incorporation assay in KMS12; format: cell-based, human
Procedure: In these latter assays, the effects of Z-DTPs, Ac-DTPs and Z-LTPs on the survival/proliferation of tumour cell lines was investigated by measuring DNA synthesis using standard tritiated thymidine ([^3H]thymidine; [^3H]-TdR) uptake assays. In the analyses shown, cells were incubated for 24, 72, 120 or 144 hrs at 37° C. in the presence or absence of control or bioactive tetrapeptides, as indicated, then subjected to an additional incubation for 18 hrs with [^3H]-TdR (0.037 MBq/well, equivalent to 0.5 μCi/well). Cells were subsequently harvested onto glass fibre filter mats using a 96-well plate automated cell harvester, after which scintillation fluid was added, and [^3H]thymidine incorporation measured by liquid scintillation spectroscopy on a beta counter. The results are expressed as the percentages of the counts per minute (c.p.m.) (directly correlating with the extent of cell proliferation) measured with tetrapeptide-treated cultures relative to the c.p.m. measured with the corresponding cultures incubated with medium alone (untreated cells). All experiments were performed in triplicate.

Gadd45β/MKK7 interaction [3] = biological target: T1, Gadd45β/MKK7 interaction (Homo sapiens, UniProt O14733); experiment: ELISA competition assay of biotin-hGadd45β binding to coated GST-MKK7; conditions: for IC50: Table V, read-out: IC50 ELISA
T1 construct: The GST-fused full-length kinase was coated for 16 h at 4° C., at a concentration of 42 nM; made in house
T1 sequence (O14733 1-419): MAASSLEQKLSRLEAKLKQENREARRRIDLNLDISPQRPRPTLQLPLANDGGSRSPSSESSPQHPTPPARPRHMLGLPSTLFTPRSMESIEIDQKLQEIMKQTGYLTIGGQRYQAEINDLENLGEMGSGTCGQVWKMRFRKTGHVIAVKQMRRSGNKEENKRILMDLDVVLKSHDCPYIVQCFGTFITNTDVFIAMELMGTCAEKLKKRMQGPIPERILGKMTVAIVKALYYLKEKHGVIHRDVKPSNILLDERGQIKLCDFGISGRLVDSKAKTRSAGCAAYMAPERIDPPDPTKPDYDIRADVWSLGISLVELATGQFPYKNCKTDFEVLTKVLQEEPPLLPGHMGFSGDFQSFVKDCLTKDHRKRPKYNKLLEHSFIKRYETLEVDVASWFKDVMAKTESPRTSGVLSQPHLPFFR
How it was run: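 GST-MKK7 (42 nM) coated in Tris pH 7.5 buffer, 16 h, 4 °C; biotin-hGadd45β (21 nM) added with competitor peptides (0.01–100 nM), 1 h, 37 °C. Streptavidin-HRP/o-phenylenediamine read at 490 nm; binding expressed as % of signal without competitor.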

Gadd45β-inhibited MKK7 = biological target: T2, Gadd45β-inhibited MKK7 (Homo sapiens, UniProt O14733); experiment: MKK7 kinase assay in the presence of recombinant hGadd45β; format: biochemical; conditions: 1 nM or 5 nM peptide, 5 μM GST-hGadd45β
T2 construct: expressed in transfected cells; host or cells: HEK-293 (FLAG-MKK7); bacteria (GST-hGadd45β)
T2 sequence (O14733 1-419): T1 sequence (O14733 1-419)
Procedure: In FIG. 6, transient transfection of pcDNA-FLAG-MKK7 in HEK-293 cells was performed using the method of Ca3(PO4)2 precipitation, essentially as described in Papa, S et al., (2004) Nat. Cell Biol. 6, 146-153 and references therein. 36 hrs after transfection, the cells were treated with 100 ng/ml phorbol 12-myristate 13-acetate (PMA) and 1 μM ionomycin for 30 min at 37° C. Cell extracts were prepared as described in example 4 and used for immunoprecipitation with anti-FLAG antibodies (binding to FLAG-MKK7) as described in Papa, S et al., (2004) Nat. Cell Biol. 6, 146-153 and references therein. Briefly, 50 μg of cell lysate from PMA-ionomycin (P/D-treated or untreated, HEK-293 cells transiently expressing FLAG-MKK7 was incubated with 10 μl of anti-FLAG M2 Affinity Gel (SIGMA) for 4 hrs at 4° C. during rotation. The immunoprecipitates were then washed 3 times in lysis buffer and twice more in kinase buffer (10 mM HEPES, 5 mM MgCl2, 1 mM MnCl2,12.5 mM β-glycerophosphate, 2 mM DTT, 4 mM NaF and 0.1 mM Na3VO4). MKK7 catalytic activity was finally measured in kinase assays by incubating FLAG-MKK7 immunoprecipitates at 30° C. for 20 min with 20 μl of kinase buffer containing 2 μM of recombinant GST-JNK1 and 5 μCi of [γ-^32P]ATP) (kinase reaction), as described in Papa, S et a., (2004) Nat. Cell Biol. 6, 146-153 and references therein.
In some reactions, to test the ability of D-tetrapeptide antagonists to disrupt the Gadd45β-MKK7 interaction and so release the catalytic activity of MKK7 from Gadd45β-afforded inhibition, FLAG-MKK7 immunoprecipitates were 1) first pre-incubated for 10 min at 30° C. with either 1 nM or 5 nM of DTP1, DTP2 or negative control (NC) D-tetrapeptides, NC1, NC2, NC3 and NC4, and 2) then incubated for another 10 min at 30° C. with or without 5 μM of a GST-fusion protein of recombinant human (h)Gadd45β (GST-hGadd45β; purified from bacterial lysates as described in Papa, S., (2007) J. Biol. Chem. 282, 19029-19041), before using them for the kinase reaction described above, as indicated in FIG. 6.
In all cases, kinase reactions were terminated by the addition of Laemmli sample buffer. […] For a further discussion of MKK7 kinase assay conditions, the reader is directed to Papa, S et al., (2007) J. Biol. Chem. 282, 19029-19041 and Papa, S et al., (2004) Nat. Cell Biol. 6, 146-153 and the references therein.

Gadd45β/MKK7 interaction [4] = biological target: T1, Gadd45β/MKK7 interaction; experiment: ELISA competition assay after 48-hr pre-incubation with human serum at 37° C.; format: binding; conditions: for stability after pre-incubation with human serum: result in words
Procedure: In FIG. 4, Gadd45β/MKK7 binding, competition ELISA assays were carried out to determine the stability of Z-conjugated D-tetrapeptides in human serum. […] ELISA were performed as described in FIG. 3 C. Briefly, 100 μl of 42 nM of recombinant GST-MKK7 in ELISA buffer (25 mM Tris pH 7.5, 150 mM NaCl, 1 mM DTT, 1 mM EDTA) were coated onto wells of 96-well plates by overnight incubation at 4° C. After blocking with 2% of NFDM for 1 hr at 37° C., plates were washed with TPBS, and then 21 nM of recombinant, biotinylated human (h)Gadd45β were added to the wells together with increasing concentrations of tetrapeptides which had either been subjected or had not been subjected to pre-incubation with human serum, as indicated. For a further discussion of the conditions used for the competition ELISA assay, the reader is directed to Tornatore et al 2008 JMB, 378: 97-111 and the references therein.

[5] = system: U266, KMS-11, NCI-H929, BJAB and U937 tumour cell lines; experiment: [3H]thymidine incorporation assay in tumour cell lines at 10 μM; format: cell-based, human; conditions: up to 144 hrs, result in words
Procedure: All experiments were performed in triplicate.

Structure (SMILES)	IC50 [1] [µM]	IC50 [2] [µM]	restoration of MKK7 catalytic activity (Gadd45β-inhibited MKK7)	further results
O=C(O)C[C@@H](NC(=O)c1ccccc1)C(=O)N[C@H](Cc1c[nH]cn1)C(=O)Nc1ccccc1 [Compound 2, X1-Asp-His-Y1] (Bz-[dD]-[dH]-NHPh)	> 10	> 10		IC50 (Gadd45β/MKK7 interaction [3]; FIG. 3C): > 0.001 µM
CC(=O)N[C@@H](Cc1ccc(O)cc1)C(=O)N[C@@H](CCC(=O)O)C(=O)N[C@@H](CCCCN)C(=O)N[C@@H](Cc1c[nH]c2ccccc12)C(N)=O [NC3, Acetyl-(L-Tyr)-(L-Glu)-(L-Lys)-(L-Trp)-NH2] (Ac-YEKW-NH2)			did not	
NC(=O)[C@@H](Cc1ccccc1)NC(=O)[C@@H](CC(=O)O)NC(=O)[C@@H](Cc1ccc(O)cc1)NC(=O)OCc1ccccc1 [Compound 8, Z-Tyr-Asp-Phe-NH2] (Cbz-[dY]-[dD]-[dF]-NH2)				IC50 ([1]; Day 3, read-out: IC50 [H^3] thymidine incorporation assay in KMS11): > 10 µM; IC50 ([1]; Day 6, read-out: IC50 [H^3] thymidine incorporation assay in KMS11): > 10 µM; IC50 (Gadd45β/MKK7 interaction [3]; peptides 0.01-10 nM): 0.000162 µM
O=C(O)C[C@@H](NC(=O)c1ccc(O)cc1)C(=O)N[C@H](Cc1c[nH]cn1)C(=O)Nc1ccccc1 [Compound 5, X2-Asp-His-Y1]	> 10	> 10		
CC(=O)N[C@@H](Cc1ccc(O)cc1)C(=O)N[C@@H](CC(=O)O)C(=O)N[C@@H](CCCCN)C(=O)N[C@@H](Cc1c[nH]c2ccccc12)C(N)=O [NC4, Acetyl-(L-Tyr)-(L-Asp)-(L-Lys)-(L-Trp)-NH2] (Ac-YDKW-NH2)			did not	
O=C(O)C[C@@H](NC(=O)c1ccccc1)C(=O)N[C@H](Cc1c[nH]cn1)C(=O)NCc1ccccc1 [Compound 3, X1-Asp-His-Y2] (Bz-[dD]-[dH]-NHBn)	> 10	> 10		IC50 (Gadd45β/MKK7 interaction [3]; FIG. 3C): > 0.001 µM
O=C(O)C[C@@H](NC(=O)c1ccc(O)cc1)C(=O)N[C@H](Cc1c[nH]cn1)C(=O)NCc1ccccc1 [Compound 6, X2-Asp-His-Y2]	> 10	> 10		
CC(=O)N[C@@H](Cc1ccc(O)cc1)C(=O)N[C@@H](CC(=O)O)C(=O)N[C@@H](Cc1c[nH]cn1)C(=O)N[C@@H](C)C(N)=O [NC2, Acetyl-(L-Tyr)-(L-Asp)-(L-His)-(L-Ala)-NH2] (Ac-YDHA-NH2)			did not	
NC(=O)[C@H](Cc1ccccc1)NC(=O)[C@H](Cc1c[nH]cn1)NC(=O)[C@H](CC(=O)O)NC(=O)[C@H](Cc1ccc(O)cc1)NC(=O)OCc1ccccc1 [Z-YDHF-NH2] (Cbz-YDHF-NH2)				IC50 (Gadd45β/MKK7 interaction [4]): > 10 µM; stability after pre-incubation with human serum (Gadd45β/MKK7 interaction [4]): significant loss of activity; tumoricidal/cytotoxic activity in tumour cell lines [5]: not
N=C(N)NCCC[C@H](NC(=O)[C@H](CCC(=O)O)NC(=O)[C@H](Cc1ccc(O)cc1)NC(=O)OCc1ccccc1)C(=O)N[C@@H](Cc1ccccc1)C(N)=O [Z-YERF-NH2] (Cbz-YERF-NH2)				IC50 (Gadd45β/MKK7 interaction [4]): > 10 µM; stability after pre-incubation with human serum (Gadd45β/MKK7 interaction [4]): significant loss of activity; tumoricidal/cytotoxic activity in tumour cell lines [5]: low activity; % Inhibition of Gadd45β-MKK7 binding (Gadd45β/MKK7 interaction [3]; Table III, modified peptides): 78%
O=C(O)C[C@@H](NC(=O)c1ccccc1)C(=O)N[C@H](Cc1c[nH]cn1)C(=O)NCCc1ccccc1 [Compound 4, X1-Asp-His-Y3] (Bz-[dD]-[dH]-NHPhenethyl)	> 10	> 10		IC50 (Gadd45β/MKK7 interaction [3]; peptides 0.01-10 nM): 0.0005 µM
N=C(N)NCCC[C@@H](NC(=O)[C@@H](CCC(=O)O)NC(=O)c1ccc(O)cc1)C(=O)NCc1ccccc1 [Compound 14, X2-Glu-Arg-Y2]	> 10			
CC(=O)N[C@H](Cc1ccc(O)cc1)C(=O)N[C@H](CC(=O)O)C(=O)N[C@H](Cc1c[nH]cn1)C(=O)N[C@H](CCC(N)=O)C(N)=O [NC1, Acetyl-(D-Tyr)-(D-Asp)-(D-His)-(D-Gln)-NH2] (Ac-[dY][dD][dH][dQ]-NH2)			did not	
